Assay results reported in US20150126507A1, “COMPOUNDS TO TREAT HEARING LOSS” (Fate Therapeutics, Inc., priority 2013, published 2015).

T1: AHR (Homo sapiens, UniProt P35869)
T1 construct: HEK293 cells were transduced with a lentiviral vector containing a concatamer of Atoh1 enhancer A and B elements; endogenous in cells; host or cells: HEK293-derived Atoh1 reporter cell line
T1 sequence (P35869 11-848): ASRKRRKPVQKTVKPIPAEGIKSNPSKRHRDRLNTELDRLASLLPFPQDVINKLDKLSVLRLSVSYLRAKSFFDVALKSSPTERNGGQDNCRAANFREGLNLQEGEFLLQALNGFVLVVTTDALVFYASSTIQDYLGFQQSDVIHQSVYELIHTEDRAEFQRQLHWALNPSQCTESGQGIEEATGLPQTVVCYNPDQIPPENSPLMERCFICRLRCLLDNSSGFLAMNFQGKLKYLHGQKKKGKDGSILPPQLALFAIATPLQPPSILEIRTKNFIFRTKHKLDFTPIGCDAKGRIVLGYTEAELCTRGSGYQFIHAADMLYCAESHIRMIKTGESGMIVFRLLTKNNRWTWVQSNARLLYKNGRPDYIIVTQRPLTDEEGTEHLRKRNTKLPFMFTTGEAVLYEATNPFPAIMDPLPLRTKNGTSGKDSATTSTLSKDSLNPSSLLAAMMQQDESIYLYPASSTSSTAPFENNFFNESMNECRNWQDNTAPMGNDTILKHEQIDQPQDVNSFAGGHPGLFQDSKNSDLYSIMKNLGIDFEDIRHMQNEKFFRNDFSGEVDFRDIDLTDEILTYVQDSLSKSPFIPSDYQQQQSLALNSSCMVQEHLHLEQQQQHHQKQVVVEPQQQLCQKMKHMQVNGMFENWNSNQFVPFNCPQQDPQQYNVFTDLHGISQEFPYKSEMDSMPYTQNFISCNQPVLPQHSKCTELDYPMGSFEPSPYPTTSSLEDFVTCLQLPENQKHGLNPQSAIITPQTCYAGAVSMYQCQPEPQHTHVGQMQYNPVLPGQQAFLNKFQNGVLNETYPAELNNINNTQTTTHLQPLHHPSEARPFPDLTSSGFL

B1: AHR siRNA: pool of four siRNA sequences against human AHR (Thermo Scientific) (nucleic acid)
guide 1: GCAAGUUAAUGGCAUGUUU
guide 2: GAACUCAAGCUGUAUGGUA
guide 3: GCACGAGAGGCUCAGGUUA
guide 4: GCAACAAGAUGAGUCUAUU
modifications: pool of four siRNAs, further chemistry not given here

What follows are molecules tested on P5 rat cochlear explants (assay: Tobramycin treatment of cochlear explants, hair cell and supporting cell marker mRNA). Details: tobramycin 1 mM, 3 days.
Format: cell-based
Method: The ten selected hits of Example 43 were assayed for the ability to induce Atoh1 expression in primary cultured cochlear explants from the neonatal rat. Postnatal day 5 (P5) rat cochlear explants were cultured with the ototoxic aminoglycoside antibiotic, tobramycin (1 mM), for 3 days prior to drug testing, as an in vitro model of drug-induced hearing loss. […] See, e.g., Ruedi, et al., Larynoscope 62:333-357 (1952). After the 3 day tobramycin pretreatment, the cochlear explants were cultured with the compounds of Example 43 or DMSO vehicle for an additional 2 days. Atoh1 expression levels, measured by qRT-PCR and normalized to ribosomal 18S expression, after hit compound treatments are shown in FIG. 3.
`NC[C@H]1O[C@H](O[C@H]2[C@H](O)[C@@H](O[C@H]3O[C@H](CO)[C@@H](O)[C@H](N)[C@H]3O)[C@H](N)C[C@@H]2N)[C@H](N)C[C@@H]1O` [tobramycin] was tested, and the “Sox2 mRNA (supporting cell marker)” value was “without reducing”, the “reduction of Atoh1 mRNA level” value was “more than 80%” and the “reduction of MYO7A mRNA level” value was “more than 80%”.

Each molecule was assayed against T1, AHR (assay: AHR siRNA analysis in Atoh1 reporter cell line, luciferase assay and qRT-PCR). Details: 75 nM siRNA, 5 μM Compound 4 for 48 hours, luciferase assay.
Format: cell-based
Method: An siRNA analysis was used to determine if AHR is required for the Atoh1-inducing activity of Compound 4. One day before transfection, the Atoh1 reporter cell line was plated at 1.5×10^5 cells/well in a 24-well plate. The cells were transfected with 75 nM on-target plus human AHR siRNA SMART pool or Non-target pool using DharmaFECT1 (Thermo Scientific). AHR siRNA sequences in the SMART pool were GCAAGUUAAUGGCAUGUUU, GAACUCAAGCUGUAUGGUA, GCACGAGAGGCUCAGGUUA, and GCAACAAGAUGAGUCUAUU. Mock-transfected cells served as an additional negative control. 16 hours after transfection, media were replaced with fresh complete medium containing 5 μM Compound 4 or DMSO. After 48 hours of treatment, cells were analyzed by luciferase assay and qRT-PCR.
AHR siRNA reduced AHR expression by 69%, while the control siRNA was without effect. […] Results are expressed in FIGS. 6A and 6B as the average±S.D. for triplicate wells. […] See, e.g., Ben-Arie, et al., Human Mol. Genetics 5(9):1207-1216 (1996).
For B1, the “reduction of Compound 4-mediated Atoh1 reporter activity” value was 54%.

Same assay, conditions: 75 nM siRNA, qRT-PCR
For B1, the “reduction of AHR expression” value was 69%.

The molecules below were run on Atoh1 enhancer reporter in HEK293 cells (assay: Atoh1 reporter cell line, firefly luciferase normalized to renilla luciferase). Details: Atoh1 reporter cell line treated with AHR agonists for 2 days.
Format: cell-based
Method: FIG. 2. Dose response data for selected hits. Atoh1 reporter cells plated in 384 well plates were treated with test compounds or vehicle controls for 2 days. Firefly luciferase signal was measured and normalized to the renilla luciferase signal. Results from duplicate wells (circles and triangles) are expressed relative to normalized controls treated with DMSO.
A reporter cell line expressed in HEK293 cells in which Atoh1 enhancer elements flanked a minimal promoter driving firefly luciferase expression was created. Dose response data was generated in the reporter cell line. Atoh1 reporter cells plated in […] plates were treated with test compounds or vehicle controls for 2 days. Firefly luciferase signal was measured and normalized to the renilla luciferase signal.
For high-throughput screening, HEK293 cells were transduced with a lentiviral vector containing a concatamer of Atoh1 enhancer A and B elements, the Promega minP minimal promoter, firefly luciferase coding sequence and hygromycin selectable marker. After selection, the cells were transduced with a second lentiviral vector containing the EF1α constitutive promoter, Renilla luciferase and puromycin selectable marker. A clonal derivative expressing both transgenes was expanded and banked for screening.
A screening assay was done by plating 8000 cells/well in 384 well plates, and treating for 48 hours with 1 and 10 μM test compound in DMSO, vehicle control, or the GSK-3B inhibitor, BIO, as a positive control. Firefly and Renilla luciferase were measured sequentially using Dual-Glo (Promega) with an Envision multi-label plate reader (Perkin Elmer). Data were analyzed after normalizing firefly luciferase signals to Renilla luciferase signals. A primary screen of 50,000 diverse compounds identified 140 hits. […] 10 of these 41 hits were selected for further analysis
To confirm activity in the 10 selected hits, the test compounds were reassayed at 3.3×10^−9, 1×10^−8, 3.3×10^−8, 1×10^−7, 3.3×10^−7, 1×10^−6, 3.3×10^−6 and 1×10^−5 molar concentrations. […] Results from duplicate wells (circles and triangles) are expressed relative to normalized controls treated with DMSO.
In the case of `COC(=O)c1csc(C(=O)c2c[nH]c3ccccc23)n1` [ITE, reference compound], the Atoh1 reporter activity is reported as “stimulated Atoh1 reporter activity”. For `CN1C(=O)/C(=C2\Nc3ccccc3\C2=N/O)c2ccc(Br)cc21` [MeBIO, reference compound], the Atoh1 reporter activity was “stimulated Atoh1 reporter activity”. For `Br.Cc1ccc(C(=O)Cn2c3c(sc2=N)CCCC3)cc1` [Pfithrin-α-hydrobromide, reference compound], the Atoh1 reporter activity was “stimulated Atoh1 reporter activity”.

Same assay, conditions: Homo sapiens, HEK293, 48 h, Atoh1 reporter HEK293 cells, treated 2 days, dose response; read-out: ED50 (the source's name)
Work on `Cc1c(C(=O)N(C)c2nccs2)oc2ccccc12` [Compound 1, N,3-dimethyl-N-(thiazol-2-yl)benzofuran-2-carboxamide] yielded an EC50 of 1600 nM. In the case of `CN(C(=O)c1cc2ccccc2o1)c1nccs1` [Compound 2, N-methyl-N-(thiazol-2-yl)benzofuran-2-carboxamide], the EC50 is reported as 700 nM. With `Cc1nc(NC(=O)c2oc3ccccc3c2C)sc1C` [Compound 3] the EC50 was 2700 nM. `CCOC(=O)c1sc(NC(=O)c2oc3ccccc3c2C)nc1C` [Compound 5] gave an EC50 of 700 nM. `Cc1c(C(=O)Nc2nc(-c3ccccc3)cs2)oc2ccccc12` [Compound 6] was tested, and the EC50 was 1300 nM. In the case of `Cc1c(C(=O)Nc2nc(C(C)(C)C)cs2)oc2ccccc12` [Compound 7], the EC50 is reported as 1300 nM. With `Cc1c(C(=O)Nc2nc(S(C)(=O)=O)cs2)oc2ccccc12` [Compound 8] the EC50 was 1100 nM. For `Cc1nc(NC(=O)c2oc3ccccc3c2C)sc1C(=O)N(C)C` [Compound 9], the EC50 was 1700 nM. `COc1ccc2nc(NC(=O)c3oc4ccccc4c3C)sc2c1` [Compound 11] was tested, and the EC50 was 700 nM. `Cc1c(C(=O)Nc2nc3ccc(Cl)cc3s2)oc2ccccc12` [Compound 12] was tested, and the EC50 was 600 nM. With `O=C(Nc1nccs1)c1cc2ccccc2o1` [Compound 13] the EC50 was 400 nM. Molecule `COc1cccc2cc(C(=O)Nc3ncc(C)s3)oc12` [Compound 15] has an EC50 of 1000 nM. `COc1cccc2cc(C(=O)Nc3nccs3)oc12` [Compound 16] was tested, and the EC50 was 2700 nM. With `O=C(Nc1nc2c(s1)CCCC2)c1cc2ccccc2o1` [Compound 17] the EC50 was 400 nM. With `Cc1c(C(=O)Nc2nccs2)oc2c1ccc1ccccc12` [Compound 18] the EC50 was > 3000 nM. `Cc1c(C(=O)Nc2nccs2)oc2c(Cl)cccc12` [Compound 19] was tested, and the EC50 was 700 nM. `COc1ccc2oc(C(=O)Nc3nc(CN4CCOCC4)cs3)c(C)c2c1` [Compound 21] gave an EC50 of 900 nM. With `CSCc1c(C(=O)Nc2nccs2)oc2ccccc12` [Compound 22] the EC50 was 500 nM. Molecule `CCOc1ccc2oc(C(=O)Nc3nccs3)c(C)c2c1` [Compound 23] has an EC50 of 500 nM. For `O=C(Nc1nccs1)c1oc2ccccc2c1COc1ccccc1` [Compound 24], the EC50 was 700 nM. `COCc1c(C(=O)Nc2nccs2)oc2ccccc12` [Compound 25] gave an EC50 of 1700 nM. With `Cc1csc(N(C(=O)c2cc3ccccc3o2)c2ccccc2)n1` [Compound 26] the EC50 was > 3000 nM. `Cc1cnc(NC(=O)c2cc3ccccc3o2)s1` [Compound 27] was tested, and the EC50 was 200 nM. `CSCc1c(C(=O)Nc2nc(C)cs2)oc2ccccc12` [Compound 28] was tested, and the EC50 was 1300 nM. `CN(C(=O)c1cc2cccc(Br)c2o1)c1nccs1` [Compound 29] showed an EC50 of 1400 nM. In the case of `O=C(Nc1nccs1)c1cc2cc(Br)ccc2o1` [Compound 30], the EC50 is reported as > 3000 nM. With `Cc1c(C(=O)Nc2nccs2)oc2ccc(F)cc12` [Compound 31] the EC50 was 600 nM. Work on `CCc1nc(NC(=O)c2oc3c(F)cccc3c2C)sc1C` [Compound 32] yielded an EC50 of 1000 nM. With `Cc1cnc(NC(=O)c2oc3ccc(Br)cc3c2C)s1` [Compound 33] the EC50 was 400 nM. In the case of `Cc1csc(NC(=O)c2oc3ccc(Br)cc3c2C)n1` [Compound 34], the EC50 is reported as 1600 nM. `COc1ccc2oc(C(=O)Nc3nc(C)cs3)c(C)c2c1` [Compound 35] showed an EC50 of 500 nM. `Cc1c(C(=O)Nc2nccs2)oc2ccc(Br)cc12` [Compound 36] gave an EC50 of 800 nM. Molecule `Cc1csc(NC(=O)c2oc3ccc(F)cc3c2C)n1` [Compound 37] has an EC50 of 2300 nM. For `Cc1csc(NC(=O)c2oc3c(Cl)cccc3c2C)n1` [Compound 38], the EC50 was > 3000 nM. Work on `CC(=O)c1sc(NC(=O)c2cc3ccccc3o2)nc1C` [Compound 39] yielded an EC50 of 500 nM. In the case of `Cc1c(C(=O)Nc2nccs2)oc2ccc(Cl)cc12` [Compound 41], the EC50 is reported as 400 nM.
